This note sets out measurements from US5885987A, “Phenylene derivatives” (Kowa Co., Ltd., priority 1996, dated 1999).

Usually inhibition stands for the share of the control response that was lost under treatment. One may read the IC50 as the concentration at which inhibition is half-maximal. As a reminder, the Kd is a measure of binding affinity in units of concentration.

Test [1] addresses T1, isolated guinea pig ileum (histamine) (Cavia porcellus, UniProt P31389).
T1 construct: An isolated guinea pig ileum was cut into about 2 cm lengths; from tissue; host or cells: isolated guinea pig ileum
In words: Antihistaminic action (in vitro), inhibition of histamine-induced contraction of isolated ileum. In kind it is cell-based. The note with it: for inhibition at 10 µM: 10^-5 M, 30 minutes incubation, 37° C., read-out: Antihistaminic (%), contraction inhibition rate; for pD'2 (antihistaminic action): isolated guinea pig ileum, histamine, 30 min. Here is the method:
(§1) Antihistaminic Action and Anti-LTD4 Action (In vitro Tests)
(§2) An isolated guinea pig ileum was cut into about 2 cm lengths. Each ileum piece was suspended in a 20-ml container filled with the Krebs buffer. An isotonic contractive response by histamine or leukotriene D4 was recorded on a recorder. The Krebs buffer was controlled at 37° C., through which a mixed gas (95%O2 -5%CO2) was bubbled. First, histamine or leukotriene D4 was added to an organ bath to measure its dose-response. After the ileum piece was washed several times with the buffer, a test compound (will be identified by its example number; this will apply likewise hereinafter) of a predetermined specific concentration was added. Subsequent to incubation for 30 minutes, the dose-response of histamine or leukotriene D4 was measured again. Incidentally, in Table 7, the values (%) indicate contraction inhibition rate at 10^-5 M, while the values in parentheses show pD'2 values in the case of antihistaminic action and IC50 values in the case of anti-LTD4 action.

The target of the next test is T2, H1 receptor (Cavia porcellus, UniProt P31389).
T2 construct: guinea pig cerebromembranous protein; from tissue; host or cells: guinea pig cerebral (brain) membranes
In words: H1 receptor binding inhibition test ([^3 H]mepyramin, guinea pig cerebromembranous protein). Conditions: for inhibition at 10 µM: b: 10 μM; for inhibition at 10 µM / inhibition at 100 µM: read-out: H1 receptor (%), inhibition rate; for inhibition at 100 µM: a: 100 μM; for Kd: read-out: H1 receptor, dissociation constant KD. The gist of the method: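 [³H]Mepyramine binding to guinea pig brain membranes was stopped with ice-cold phosphate buffer and filtered, and bound radioactivity was measured by liquid scintillation. Nonspecific binding was defined with 10^-4 M R(-)dimethindene. IC50 came from concentration-response data and was converted to a dissociation constant by Cheng-Prusoff.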

For test [2], the system named is isolated guinea pig ileum (leukotriene D4). The test can be described thus: Anti-LTD4 action (in vitro), inhibition of leukotriene D4-induced contraction of isolated ileum. Conditions: Cavia porcellus; for IC50: isolated guinea pig ileum, leukotriene D4; for inhibition at 10 µM: 0.5 h, 10^-5 M, 30 minutes incubation, 37° C., read-out: Anti-LTD4 action (%), contraction inhibition rate. The class given is cell-based. Here is the method: as §1, §2

A further test addresses T3, LTD4 receptor (Cavia porcellus, UniProt Q2NNR5).
T3 construct: guinea pig pulmomembranous protein; from tissue; host or cells: guinea pig lung membranes
T3 sequence (Q2NNR5 1-340): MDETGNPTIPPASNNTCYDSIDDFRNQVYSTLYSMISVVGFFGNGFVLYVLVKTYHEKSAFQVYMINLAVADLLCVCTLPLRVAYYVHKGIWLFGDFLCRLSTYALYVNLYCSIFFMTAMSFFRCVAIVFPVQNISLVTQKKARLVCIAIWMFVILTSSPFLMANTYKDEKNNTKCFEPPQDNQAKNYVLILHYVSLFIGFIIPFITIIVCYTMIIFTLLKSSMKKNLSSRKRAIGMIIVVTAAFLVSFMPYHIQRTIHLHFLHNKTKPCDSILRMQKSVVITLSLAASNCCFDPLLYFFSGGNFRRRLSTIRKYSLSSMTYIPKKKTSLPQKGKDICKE
The test can be described thus: LTD4 receptor binding inhibition test ([^3 H]leukotriene D4, guinea pig pulmomembranous protein). The note with it: for Kd: read-out: LTD4 receptor, dissociation constant KD; for inhibition at 10 µM: b: 10 μM. The gist of the method: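 Filtration binding with [3H]LTD4 on guinea pig lung membranes; reaction stopped with ice-cold Tris-HCl/NaCl buffer (10 mM/100 mM, pH 7.5), bound radioactivity by scintillation counting. Nonspecific binding defined with 2 μM leukotriene D4. IC50 from dose-response, converted to dissociation constant by Cheng-Prusoff.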

For another test, the system named is leukotriene D4. The test can be described thus: Anti-LTD4 action in vivo, Evans Blue transudation in back skin after intracutaneous leukotriene D4. On the set-up: species or system male Hartley guinea pig. Conditions: Cavia porcellus, po, 1 h; orally 10 mg/kg, one hour before; leukotriene D4 0.5 μg/ml, 0.1 ml intracutaneously; read-out: Anti-LTD4 action (%), inhibition rate. As for the experimental part: Antihistaminic Action and Anti-LTD4 Action (In vivo Tests)
After the hair on the back of a male Hartley guinea pig was cut off, a test compound was orally administered at 10 mg/kg. One hour later, 5% Evans Blue solution was intravenously administered at 1 ml/kg and immediately after that, a 0.3 μg/ml solution of histamine and a 0.5 μg/ml solution of leukotriene D4 were intracutaneously administered each in an amount of 0.1 ml to the back. Thirty minutes later, the guinea pig was sacrificed under exsanguination, the skin was cut off, and the transudated color was quantitated by extraction. To a control, 0.5% CMC (carboxylmethylcellulose) was orally administered and the subsequent procedures were repeated likewise. From the difference in the amount of the transudated color between the control and the group administered with the test compound, an inhibition rate was calculated.

Where [3] appears, read: read-out: LTD4 receptor (%), inhibition rate.

T2 sequence (P31389 whole entry): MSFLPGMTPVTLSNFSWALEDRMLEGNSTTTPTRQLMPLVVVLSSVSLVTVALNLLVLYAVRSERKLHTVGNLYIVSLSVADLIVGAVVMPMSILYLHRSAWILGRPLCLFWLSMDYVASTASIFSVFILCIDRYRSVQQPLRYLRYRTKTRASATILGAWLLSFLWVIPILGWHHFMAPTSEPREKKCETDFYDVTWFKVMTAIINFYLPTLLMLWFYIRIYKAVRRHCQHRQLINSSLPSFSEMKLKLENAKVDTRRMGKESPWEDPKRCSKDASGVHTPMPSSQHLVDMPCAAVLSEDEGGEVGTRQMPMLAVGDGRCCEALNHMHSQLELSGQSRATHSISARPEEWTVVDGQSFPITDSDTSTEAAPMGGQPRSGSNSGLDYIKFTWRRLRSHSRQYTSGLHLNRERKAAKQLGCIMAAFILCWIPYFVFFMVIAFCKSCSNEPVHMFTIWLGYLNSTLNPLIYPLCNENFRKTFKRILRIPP
T1 sequence (P31389 whole entry): as above

In the case of `CN(Cc1cccc(OCc2ccc3ccccc3n2)c1)c1ccc2c(c1)SCC(=O)N2C` [96(b), 4-methyl-7-[N-methyl-N-(3-(2-quinolinylmethoxy)benzyl)amino]-3,4-dihydro-2H-1,4-benzothiazin-3-one], the inhibition at 10 µM in test [1] was 98%; at H1 receptor, 14%. Moreover, the “pD'2 (antihistaminic action)” value in test [1] is listed as 6.17. Moreover, half-maximal inhibition in test [2] (IC50) required 120 nM. For the same compound, the Kd at LTD4 receptor is 315 nM.

`O=C1CCc2cc(OCc3cccc(OCc4ccc5ccccc5n4)c3)ccc2N1` [Example 6]: the inhibition at 10 µM in test [1] is 37%; on H1 receptor, 18%; in test [2], 98%. In test [2], this compound returned an IC50 of 460 nM. The inhibition in vivo at 10 mg/kg in the test with leukotriene D4 came to 12%. Besides, the Kd on LTD4 receptor was determined as 81.4 nM.

Take `O=C1CSc2cc(OCc3cccc(OCc4ncc5ccccc5n4)c3)ccc2N1` [Example 33, 7[3-(2-quinazolinylmethoxyl)benzyloxy]-3,4-dihydro-2H-1,4-benzothiazin-3-one]: in test [1], the inhibition at 10 µM amounted to 65% and the “pD'2 (antihistaminic action)” value is 5.25. The inhibition at 100 µM on H1 receptor was determined as 46%. In addition, in test [2], the inhibition at 10 µM stood at 100% and 130 nM corresponded to half-maximal inhibition (IC50). Further, the inhibition in vivo at 10 mg/kg with leukotriene D4 came out at 40%. Also, the Kd on LTD4 receptor worked out at 9.7 nM.

As to `Cc1ccc(OCc2ccc(OCc3nc4ccccc4n3C)cc2)c2c1NC(=O)C2(C)C` [Example 39, 4-[4-(N-methylbenzimidazol-2-yl-methoxy)benzyloxy)-3,3,7-trimethyl-2,3-hydro-1H-indol-2-one], in test [1], the inhibition at 10 µM worked out at 100% and the “pD'2 (antihistaminic action)” value was 6.42. In addition, the Kd on H1 receptor was determined as 37400 nM. Further, in test [2], the inhibition at 10 µM is 98% and the midpoint of inhibition, the IC50, lay at 440 nM. The Ki at LTD4 receptor (read-out: LTD4 receptor, dissociation constant KD (converted)) is 408 nM.

With `O=C1CS(=O)(=O)c2cc(OCc3cccc(OCc4ccc5ccc(Cl)cc5n4)c3)ccc2N1` [Example 75], the inhibition at 100 µM at H1 receptor turned out to be 36%. Further, on LTD4 receptor (concentration not given), the “LTD4 receptor (%), inhibition rate” value was found to be 0%.

As for `O=C1CCS(=O)(=O)c2cc(OCc3cccc(OCc4ccc5ccccc5n4)c3)ccc2N1` [Example 76], the Kd at H1 receptor turned out to be 122000 nM. On LTD4 receptor (a: 100 μM, read-out: LTD4 receptor (%), inhibition rate), the inhibition at 100 µM was 0%.

As to `O=C1CS(=O)(=O)c2cc(OCc3cccc(OCc4nc5ccccc5s4)c3)ccc2N1` [Example 78, 7-[3-(2-Benzothiazolylmethoxy)benzyloxy]-3,4-dihydro-2H-1,4-benzothiazin-3-one 1,1-dioxide], the inhibition at 100 µM at H1 receptor is 29%. For the same compound, in the test with leukotriene D4, the inhibition in vivo at 10 mg/kg stood at 32%. In addition, on LTD4 receptor, the Kd was 12600 nM.

Consider `Cn1c(COc2cccc(COc3ccc4c(c3)S(=O)(=O)CC(=O)N4)c2)nc2ccccc21` [Example 79, 7-[3-(N-Methylbenzimidazol-2-yl-methoxy)benzyloxy]-3,4-dihydro-2H-1,4-benzothiazin-3-one 1,1-dioxide], for which the inhibition at 100 µM at H1 receptor stood at 43%. Further, the inhibition at 10 µM on LTD4 receptor (setting [3]) was determined as 42%.

For the compound `O=C1CS(=O)(=O)c2cc(NC(=O)c3cccc(OCc4ccc5ccccc5n4)c3)ccc2N1` [Example 80], at H1 receptor, the inhibition at 100 µM was 36%. For the same compound, the inhibition at 10 µM on LTD4 receptor (setting [3]) was 27%.

Take `O=C1CCCc2cc(OCc3cccc(OCc4ncc5ccccc5n4)c3)ccc2N1` [Example 82, 7-[3-(2-quinazolinylmethoxy)benzyloxy]-2,3,4,5-tetrahydro-1H-benz[b]azepin-2-one]: the inhibition at 10 µM on H1 receptor was found to be 5%. For the same compound, the Kd at LTD4 receptor was 60 nM.

Consider `Cn1c(COc2cccc(COc3ccc4c(c3)CCCC(=O)N4)c2)nc2ccccc21` [Example 83], for which the inhibition at 10 µM at H1 receptor turned out to be 0%. Further, the Kd on LTD4 receptor was found to be 310 nM.

For `O=C1NCCCc2cc(OCc3cccc(OCc4ccc5ccccc5n4)c3)ccc21` [Example 84, 7-[3-(2-quinolinylmethoxy)benzyloxy]-2,3,4,5-tetrahydro-1H-benz[c]azepin-1-one], the values for the Kd at H1 receptor and on LTD4 receptor were 66400 nM and 26 nM, respectively.

For the compound `O=C1NCCCc2cc(OCc3ccc(OCc4ccc5ccccc5n4)cc3)ccc21` [Example 85, 7-[4-(2-quinolinylmethoxy)benzyloxy]-2,3,4,5-tetrahydro-1H-benz[c]azepin-1-one], the Kd was found to be 53100 nM at H1 receptor and 115 nM at LTD4 receptor.

As to `O=C1NCCCc2cc(OCc3cccc(OCc4ncc5ccccc5n4)c3)ccc21` [Example 86, 7-[3-(2-quinazolinylmethoxy)benzyloxy]-2,3,4,5-tetrahydro-1H-benz[c]azepin-1-one], the inhibition at 10 µM on H1 receptor was 9%. Further, on LTD4 receptor, the Kd came to 92.8 nM.

Consider `O=C1CCCc2cc(OCc3cccc(OCc4ccc5ccccc5n4)c3)ccc21` [Example 89, 6-[3-(2-quinolinylmethoxy)benzyloxy]-1-tetralone], for which the “pD'2 (antihistaminic action)” value in test [1] turned out to be 5.09. Moreover, on H1 receptor, the inhibition at 10 µM stood at 6%. Also, the midpoint of inhibition in test [2], the IC50, lay at 240 nM. Moreover, the Kd at LTD4 receptor worked out at 41.3 nM.

For the compound `O=C1CCCc2cc(OCc3cccc(OCc4ncc5ccccc5n4)c3)ccc21` [Example 90, 6-[3-(2-quinazolinylmethoxy)benzyloxy]-1-tetralone], on H1 receptor, the inhibition at 10 µM stood at 8%. Moreover, the Kd at LTD4 receptor was 12.9 nM.

Take `O=C1CSc2cc(N=Cc3cccc(OCc4ccc5ccccc5n4)c3)ccc2N1` [Example 91, 7-[3-(2-quinolinylmethoxy)benzylidenamino]-3,4-dihydro-2H-1,4-benzothiazin-3-one]: the Kd on H1 receptor was determined as 120 nM. Besides, at LTD4 receptor (setting [3]), the inhibition at 10 µM is 37%.

In the case of `O=C1CSc2cc(N=Cc3ccc(OCc4ccc5ccccc5n4)cc3)ccc2N1` [Example 92, 7-[4-(2-quinolinylmethoxy)benzylidenamino]-3,4-dihydro-2H-1,4-benzothiazin-3-one], the Kd at H1 receptor worked out at 120 nM. Also, the inhibition at 10 µM on LTD4 receptor (setting [3]) was 0%.

On to `O=C1CSc2c(N=Cc3cccc(OCc4ccc5ccccc5n4)c3)cccc2N1` [Example 93, 8-[3-(2-quinolinylmethoxy)benzylidenamino]-3,4-dihydro-2H-1,4-benzothiazin-3-one], for which the inhibition at 10 µM at H1 receptor came to 38%. The Kd on LTD4 receptor amounted to 1510 nM.

As to `O=C1CSc2cc(NCc3cccc(OCc4ccc5ccccc5n4)c3)ccc2N1` [Example 94, 7-[3-(2-quinolinylmethoxy)benzylamino]-3,4-dihydro-2H-1,4-benzothiazin-3-one], at H1 receptor, the inhibition at 10 µM came to 37%. In addition, on LTD4 receptor, the Kd worked out at 315 nM.

Take `O=C1CSc2c(NCc3cccc(OCc4ccc5ccccc5n4)c3)cccc2N1` [Example 95, 8-[3-(2-quinolinylmethoxy)benzylamino]-3,4-dihydro-2H-1,4-benzothiazin-3-one]: the inhibition at 10 µM on H1 receptor was 33%. For the same compound, on LTD4 receptor, the Kd is 608 nM.

With `CN1C(=O)CSc2c(NCc3cccc(OCc4ccc5ccccc5n4)c3)cccc21` [Example 97, 4-methyl-8-[3-(2-quinolinylmethoxy)benzylamino]-3,4-dihydro-2H-1,4-benzothiazin-3-one], the inhibition at 10 µM on H1 receptor stood at 7%. Moreover, the Kd on LTD4 receptor was found to be 681 nM.
